How the values were obtained:
[1] = test system: human OA meniscus explants; assay: PGE2 levels in culture supernatant of meniscus explants; type: cell-based; conditions: 24 h, relative to control (Figure 6F)
Method: Figure 6 Peptide p[63−82] activity on OA knee joint tissues Human OA knee joint tissues were cultured for 24 h in the presence of BMP7, peptide p[63−82], or the scrambled version of peptide p[63−82] and compared to control conditions. (A) Cartilage tissues (n = 7 individual donors) were exposed to shown conditions and analyzed for COL2A1, COL10A1, and COX-2 mRNA expression by quantitative real-time PCR (normalized for 28S rRNA expression and relative to control conditions). (B) GAG release in medium from cartilage tissues (n = 5 individual donors) was determined, and data were calculated relative to the control condition. (C) PGE2 levels in culture supernatant from synovium (n = 5 donors). (D) PGE2 levels in culture supernatant from cartilage tissues from (B) (n = 5 donors). (E) PGE2 levels in culture supernatant from IPFP (n = 5 donors). (F) PGE2 levels in culture supernatant from the meniscus. Synovium, IPFP, and meniscus tissues were from the same 5 donors as the cartilage tissues in (B) and (C). PGE2 levels in conditions were calculated relative to controls for each donor. In graphs, error bars represent mean ± SEM; data are presented relative to the control condition for each time point. Statistical differences (unpaired two-tailed Student’s t test) were calculated to control condition: ∗p < 0.05, ∗∗p < 0.01, and ∗∗∗p < 0.001. […]

[2] = test system: human OA knee cartilage explants; assay: Gene expression in OA cartilage explants; type: cell-based; conditions: n = 7 donors, 24 h, normalized to 28S rRNA, relative to control; BMP7 1 nM (Figure 6A)
Method: (§1) To determine whether peptide p[63−82] has the potency to alter chondrocyte behavior in cartilage tissue, rather than isolated HACs, cartilage biopsies from OA knees were cultured in the presence of peptide p[63−82], alongside its scrambled version and full-length BMP7.
(§2) Figure 6 Peptide p[63−82] activity on OA knee joint tissues Human OA knee joint tissues were cultured for 24 h in the presence of BMP7, peptide p[63−82], or the scrambled version of peptide p[63−82] and compared to control conditions. (A) Cartilage tissues (n = 7 individual donors) were exposed to shown conditions and analyzed for COL2A1, COL10A1, and COX-2 mRNA expression by quantitative real-time PCR (normalized for 28S rRNA expression and relative to control conditions). (B) GAG release in medium from cartilage tissues (n = 5 individual donors) was determined, and data were calculated relative to the control condition. (C) PGE2 levels in culture supernatant from synovium (n = 5 donors). (D) PGE2 levels in culture supernatant from cartilage tissues from (B) (n = 5 donors). (E) PGE2 levels in culture supernatant from IPFP (n = 5 donors). (F) PGE2 levels in culture supernatant from the meniscus. Synovium, IPFP, and meniscus tissues were from the same 5 donors as the cartilage tissues in (B) and (C). PGE2 levels in conditions were calculated relative to controls for each donor. […] Statistical differences (unpaired two-tailed Student’s t test) were calculated to control condition: ∗p < 0.05, ∗∗p < 0.01, and ∗∗∗p < 0.001.
Cartilage was obtained from total knee arthroplasty of end-stage (K&L grades 3−4) OA patients and from resected knee cartilage from cartilage repair procedures of non-OA patients. […] The bioluminescent readout was performed by lysing cells in Passive Lysis Buffer (Promega) and measuring luciferase activity using the Berthold TriStar^2 LB 942 Modular Multimode Microplate Reader using the Luciferase Assay System for firefly luciferase (BRE and CAGA12) (Promega) and the Gaussia Luciferase Kit (New England Biolabs). […]

[3] = test system: human OA knee cartilage explants; assay: GAG release in medium from cartilage explants; type: cell-based; conditions: n = 5 donors, 24 h, relative to control (Figure 6B)
Method: as §1
as §2, with “Synovium, IPFP, and meniscus tissues were from the same 5 donors as the cartilage tissues in (B) and (C).” left out, “0.001. […]” for “0.001.”

OA-HACs = assay: PGE2 EIA in OA-HAC culture supernatant; type: cell-based, human; conditions: three individual OA-HAC donors, 100 nM peptide, 24 h (Figure 2F)
Method: Figure 2 Bioactivity of BMP7-derived peptides p[63−82] and p[113−132] on OA-HACs Complete peptide library screening quantitative real-time PCR dataset for peptides p[63−82] and p[113−132] is presented. (A) SOX9, COL2A1, and NKX3-2 mRNA expression in the 18 OA-HAC pool exposed to 1,000, 100, 10, or 1 nM of peptide p[63−82] and p[113−132] is shown and presented relative to control (black bars) and alongside full-length BMP7 (white bars). (B) Similar to (A) but for chondrocyte hypertrophy-associated genes RUNX2, COL10A1, and ALPL. (C) Similar to (A) but for cartilage extracellular matrix remodeling-associated genes MMP13 and ADAMTS5 and inflammation-related genes COX-2 and IL-6. […] (G) In the same OA-HAC pool of 18 OA-HAC donors from the peptide library screening, sequence dependency of peptides p[63−82] and p[113−132] was determined by exposing the OA-HAC pool to scrambled versions of peptides p[63−82] and p[113−132] […] Error bars represent mean ± SEM, and statistical significance for peptide conditions or BMP7 versus control condition as determined by unpaired two-tailed Student’s t test is represented as ∗p < 0.05, ∗∗p < 0.01, and ∗∗∗p < 0.001.
PGE2 levels were determined in the culture supernatant. PGE2 concentration was determined by a standardized enzyme immunoassay (EIA) according to the manufacturer’s protocol (Cayman Chemical).

| Substance | PGE2 levels from meniscus explants [1] | COL2A1, COL10A1, and COX-2 mRNA expression in cartilage explants [2] | sGAG release from cartilage explants [3] | prostaglandin E2 (PGE2) levels in culture supernatant (OA-HACs) |
| --- | --- | --- | --- | --- |
| BMP7: full-length recombinant bone morphogenetic protein 7 (R&D Systems), used at 1 nM | reduced | comparable | no inhibitory effect |  |
| H-AAYYSEGESAFPLNSYMNAT-OH [p[63−82]] | reduced | induce COL2A1 while inhibiting COL10A1 and COX-2 expression | no inhibitory effect | significant decrease |
| H-SEASPAMYYLNATANFYESG-OH [scrambled p[63−82], scrambled version of peptide p[63−82], reference compound] |  | lacked this activity |  |  |
| H-SVLYFDDSSNVILKKYRNMV-OH [p[113−132]] |  |  |  | significant decrease |
